Assay results from PMC12587390, “Metabolite Identification Data in Drug Discovery, Part 1: Data Generation and Trend Analysis” (Molecular Pharmaceutics, 2025).
Values after ≈ are worked out from the molar mass of the structure shown.

How the values were obtained:
dog hepatocytes = experiment: Metabolite identification in dog hepatocyte incubations; assay type: in vitro ADME; conditions: for % of the total MS area, Dog Hepatocytes (Mixed gender): Cmpd 28 incubated for 120 min, 4 μM
Protocol: (§1) Cryopreserved, pooled primary human, dog, and rat hepatocytes were obtained from BioIVT (previously Celsis IVT). L-15 Leibovitz buffer was placed in a water bath to reach 37 °C. Cryopreserved hepatocytes were transferred from a −150 °C freezer on dry ice and immediately immersed in a preheated water bath kept at 37 °C for thawing. When only a small ice crystal could be seen, the content was emptied into a 50 mL falcon tube filled with warm buffer (maximum four vials/falcon tube). The suspension was centrifuged at room temperature for 3 min at 50 g. The supernatant was removed, the pellet was resuspended in a small volume of buffer, and the falcon tube was refilled with buffer, followed by another centrifugation to wash away any remaining storage buffer. Thereafter, the supernatant was removed, and the pellet was dissolved in a small volume of buffer and diluted to a concentration of about 3–5 million cells/mL. After counting the cells using a Casy cell counter, the suspension was diluted to 1 million viable cells/mL and kept at room temperature until use. The viability cutoff was 80%.
(§2) An aliquot of 245 μL of hepatocyte suspension was added to a round-bottomed 96-deep-well plate using a manual multipipette. The deep-well plate was preincubated for 15 min at 37 °C and 13 Hz. Substrate solutions of the assay compounds were prepared by the robot in a 96-well plate as follows: 4 μL of 10 mM DMSO stock solution, followed by the addition of 96 μL of ACN:water (1:1, v:v) and mixing by shaking. 50 μL from each well were transferred to and combined in a new plate, resulting in 100 μL per well and a dilution of 1:1.
(§3) The reaction was started by the addition of 5 μL of 200 μM substrate solution to the preheated hepatocyte suspension, resulting in a final substrate concentration of 4 μM (0.04% DMSO, <0.5% ACN). The incubation was continued at 37 °C and 13 Hz. At each time point (0, 40, and 120 min), a 50 μL sample was taken out and quenched in 200 μL of cold ACN:methanol (1:1, v:v), and the stopped plates were centrifuged for 20 min (set at 4 °C and 4000 g). The supernatant was diluted by taking 50 μL and mixing it with 100 μL of water. Incubations of the positive controls, albendazole and dextromethorphan, were performed in parallel as described above.
(§4) Structural characterization of metabolites and metabolite profiling were performed using the Waters Acquity ultraperformance liquid chromatography (UPLC) system fitted to a Waters High-Resolution Mass Spectrometer (MS) (Xevo G2-S, Synapt G2-Si, or a Synapt XS MS). The Waters MS systems, equipped with an electrospray ionization (ESI) source, were operated in positive-ion sensitivity mode over a mass range m/z 50–1200 and in negative-ion sensitivity mode over a mass range m/z of 50–1200.
(§5) The reversed-phase gradient elution was performed on an Acquity U(H)-PLC BEH C18 column (2.1 × 100 mm, 1.7 μm, Waters) set at 45 °C. The mobile phases consisted of 0.1% FA in water (A) and ACN (B). […] The injection volume was 2 μL. The MS settings were optimized for the respective MS instrument. […] A scan time of 0.1 s was used, and data were acquired in centroid mode. Collision energy was set to “off” for the low-energy function, whereas in the high-energy MSe functions, the collision energies were typically ramped from 15 to 35 V in the trap cell, with constant collision energies of 20 V in their transfer cells. Cone voltage was set to 25 V for both low- and high-energy functions. For dedicated MS/MS, the m/z of the molecular ion was selected in the quadrupole, and the mass range for fragmentation analysis was typically set between 50 and 1200. The collision energies were either the same as those stated above for MSe data generation or optimized for a specific metabolite.

[1] = MetID on in vivo dog samples (plasma, urine); set-up: species or system dog (beagles); conditions: for % of the total MS area, Dog Plasma (Female): sampled at 3 h and 30 min
Protocol: (§6) The workup procedure could vary somewhat depending on the compound and dose, but the general procedure was as follows: Two volumes of ACN/methanol (1:1, v:v) were added to the plasma samples and vortex-mixed to precipitate the proteins. Thereafter, the samples were centrifuged for 10 min (at 10,000 g and 4 °C), and the supernatants were diluted with one volume of water. The urine samples were diluted with one volume of ACN/methanol (1:1, v:v) and centrifuged for 10 min (at 10,000 g and 4 °C), followed by a 1:1 dilution with water.
as §4
(§7) The reversed-phase gradient elution was performed on an Acquity U(H)-PLC BEH C18 column (2.1 × 100 mm, 1.7 μm, Waters) set at 45 °C. The mobile phases consisted of 0.1% FA in water (A) and ACN (B). […] The injection volume was 2 μL. The MS settings were optimized for the respective MS instrument. […] A scan time of 0.1 s was used, and data were acquired in centroid mode. Collision energy was set to “off” for the low-energy function, whereas in the high-energy MSe functions, the collision energies were typically ramped from 15 to 35 V in the trap cell, with constant collision energies of 20 V in their transfer cells. Cone voltage was set to 25 V for both low- and high-energy functions. For dedicated MS/MS, the m/z of the molecular ion was selected in the quadrupole, and the mass range for fragmentation analysis was typically set between 50 and 1200. The collision energies were either the same as those stated above for MSe data generation or optimized for a specific metabolite. Tune parameters for all MS analyses consisted of a capillary energy of 0.5 kV, sampling cone energy of 40 V, source temperature of 150 °C, desolvation temperature of 550 °C, cone gas flow of 0 L/h, desolvation gas flow of 1200 L/h, and nebulizer pressure of 6.5 bar.
(§8) Metabolite identification was conducted by processing the generated data using the MetaboLynx XS browser (Waters), MassMetaSite and the web interface ONIRO (Mass Analytica). […] Accurate masses of metabolites were determined from the protonated molecules in the positive ESI time-of-flight MS (ESI–TOF–MS) mode and from the deprotonated molecules in the negative ESI–TOF–MS mode. […] For those metabolites where no MS/MS data could be acquired, identification was based on the accurate mass of the molecular ion and the fragmentation seen in the MSe spectrum. Relative amounts of detected metabolites were calculated as % of the total MS area by dividing the MS peak area for the metabolite (or parent compound) by the combined MS peak area for the parent compound and all identified metabolites.

[2] = MetID on in vivo rat plasma samples; set-up: species or system rat (Han Wistar)
Protocol: as §6, §4, §7, §8

rat hepatocytes = experiment: Metabolite identification in rat hepatocyte incubations; assay type: in vitro ADME; conditions: Cmpd 28 incubated for 120 min, 4 μM
Protocol: as §1, §2
as §3, with “The supernatant was diluted by taking 50 μL and mixing it with 100 μL of water. Incubations of the positive controls, albendazole and dextromethorphan, were performed in parallel as described above.” left out

human hepatocytes [3] = experiment: Metabolic stability in human hepatocytes (HH CLint); assay type: in vitro ADME; conditions: 37 °C, 2 h
Protocol: Metabolic stability in human hepatocytes (HH CLint) was measured by incubating the cells with the test compound at 37 °C for 2 h. An aliquot of the mixture was taken at typically nine defined time points, and the metabolic reaction was stopped by adding ACN. The samples were centrifuged, and the supernatant was analyzed via LC-MS/MS. Intrinsic clearance (CLint) was calculated from the disappearance rate of the parent compound. ,

human hepatocytes [4] = experiment: Metabolite identification in human hepatocyte incubations; assay type: in vitro ADME; conditions: 4 μM
Protocol: as §1, §2, §3, §4, §5

[5] = Thermodynamic solubility, shake-flask; conditions: 10 mM sodium phosphate buffer, 25 °C, pH 7.4, aqueous buffer, thermodynamic from solid
Protocol: Solubility was measured as the thermodynamic solubility using a shake-flask approach. Here, DMSO was evaporated from the compound stock solution as the first step. The “dried” compounds were then placed into 10 mM sodium phosphate buffer, adjusted to pH 7.4, and equilibrated at 25 °C for 24 h. The samples were centrifuged, and the solution was analyzed by LC-MS/MS to determine the amount of compound in solution.

[6] = dog hepatocytes, incubated for 120 min
[7] = after Cmpd 16, semiquantitative
[8] = after Cmpd 16, oral, sampled at 60 min

Structure (SMILES): CN(C(=O)c1ccc(C#N)cc1)C(CN1CC(O)C1)c1ccccc1 (stereo not shown) [Cmpd 55, CN(C(=O)c1ccc(C#N)cc1)[C@H](CN1CC(O)C1)c1ccccc1]
- N-oxide, % of the total MS area (dog hepatocytes; [6]): no N-oxidation was seen
- Parent, % of the total MS area (dog hepatocytes; [6]): 97%
- N-oxide, % of the total MS area ([1]; dog plasma, sampled at 60 min): not observed
- Parent, % of the total MS area ([1]; dog plasma, sampled at 60 min): 49%
- N-oxide, % of the total MS area ([1]; dog urine, sampled at 7–24 h): not observed
- Parent, % of the total MS area ([1]; dog urine, sampled at 7–24 h): 61%

Structure (SMILES): O=C(Nc1c[nH]nc1C(F)(F)F)[C@@H]1CCCC[C@H]1C(=O)c1ccc(-c2cc[nH]n2)cc1 [Cmpd 16 M12]
- % of the total MS area, Dog Plasma (Female) [1, 7]: 2%
- % of the total MS area, Rat Plasma (Female) [2, 8]: 2%

Structure (SMILES): Cc1nn(C)cc1NC(=O)[C@@H]1CCCC[C@H]1C(=O)c1ccc(-c2cc(CO)[nH]n2)cc1 [Cmpd 28 M4]
- % of the total MS area, Dog Hepatocytes (Mixed gender) (dog hepatocytes): 2%
- % of the total MS area, Rat Hepatocytes (Mixed gender) (rat hepatocytes): 3%
- % of the total MS area, Dog Plasma (Female) ([1]; after Cmpd 28): 1%
- % of the total MS area, Rat Plasma (Female) ([2]; after Cmpd 28, sampled at 4 h): not seen
- % of the total MS area, Rat Plasma (Male) ([2]; after Cmpd 28, sampled at 4 h): not seen

Structure (SMILES): CC(C)C(CN1CC(O)C1)N(C)C(=O)c1ccc(Cl)cc1 (stereo not shown) [Cmpd 50, CC(C)[C@@H](CN1CC(C1)O)N(C)C(=O)c2ccc(cc2)Cl]
- Parent, % of the total MS area (dog hepatocytes; [6]): 73%
- Metabolites detected in plasma ([1]; dog plasma): No metabolites
- Parent, % of the total MS area ([1]; dog plasma, sampled at 60 min): >99%
- Parent, % of the total MS area ([1]; dog urine, sampled at 7–24 h): 10%

Structure (SMILES): COc1ccc(-c2nnc(C(=O)N3CC(Oc4ccc(CN5CC(C)(O)C5)c(C)c4)C3)o2)cc1 [Cmpd 81, COc1ccc(-c2nnc(C(=O)N3CC(Oc4ccc(CN5CC(C)(O)C5)c(C)c4)C3)o2)cc1]
- HH CLint (human hepatocytes [3]): 17 μL/min/1E6
- Metabolites / metabolic pathways identified (human hepatocytes [4]): O-demethylation pathway remains the major metabolic route
- solubility at 24 h [5]: 71 µM (≈ 33 µg/mL)

Structure (SMILES): Cc1nn(C)cc1NC(=O)[C@@H]1CCCC[C@H]1C(=O)c1ccc(-c2cc(C(=O)O)[nH]n2)cc1 [Cmpd 28 M7]
- % of the total MS area, Dog Hepatocytes (Mixed gender) (dog hepatocytes): not detected
- % of the total MS area, Dog Plasma (Female) ([1]; after Cmpd 28): 5%
- % of the total MS area, Rat Plasma (Female) ([2]; after Cmpd 28, sampled at 4 h): not seen
- % of the total MS area, Rat Plasma (Male) ([2]; after Cmpd 28, sampled at 4 h): not seen

Structure (SMILES): Cc1cc(-c2ccc(C(=O)C3CCCCC3C(=O)OC3OC(C(=O)O)C(O)C(O)C3O)cc2)n[nH]1 (stereo not shown) [Cmpd 28 M2]
- % of the total MS area, Dog Hepatocytes (Mixed gender) (dog hepatocytes): 4%
- % of the total MS area, Rat Hepatocytes (Mixed gender) (rat hepatocytes): no detection
- % of the total MS area, Dog Plasma (Female) ([1]; after Cmpd 28): 40%
- % of the total MS area, Rat Plasma (Female) ([2]; after Cmpd 28, sampled at 4 h): 1%
- % of the total MS area, Rat Plasma (Male) ([2]; after Cmpd 28, sampled at 4 h): 0.5%

Structure (SMILES): O=C(O)[C@@H]1CCCC[C@H]1C(=O)c1ccc(-c2cc[nH]n2)cc1 [Cmpd 16 M10]
- % of the total MS area, Dog Plasma (Female) [1, 7]: 1%
- % of the total MS area, Rat Plasma (Female) [2, 8]: 1%
- % of the total MS area, Rat Plasma (Male) [2, 8]: 1%

Structure (SMILES): CC(=O)Nc1cn(C)nc1C [Cmpd 28 M12]
- % of the total MS area, Rat Plasma (Female) ([2]; after Cmpd 28, sampled at 4 h): 1%
- % of the total MS area, Rat Plasma (Male) ([2]; after Cmpd 28, sampled at 4 h): 1%
